What was measured:
[1] = tested on: antibodies in sera from SARS patients (sera 1a, 1b, 2, 6, 37, 62, London, SARS-yellow, SARS-green); format: binding, human; set-up: Binding of serum 6 to linear peptides of protein X1 of SARS-CoV Urbani / Binding of serum 37 to linear peptides of protein X1 of SARS-CoV Urbani / Binding of serum 6 to looped/cyclic peptide (PEPSCAN-ELISA) / Binding of serum 37 to looped/cyclic peptide (PEPSCAN-ELISA) / Binding of serum 37 to looped/cyclic peptides of protein X1 of SARS-CoV Urbani / Binding of serum 6 to linear peptides of protein X2 / Binding of serum 37 to linear peptides of protein X2 / Binding of serum 37 to looped/cyclic peptides of protein X2 of SARS-CoV Urbani / Binding of serum 6 to linear peptides of protein M of SARS-CoV Urbani / Binding of serum 37 to linear peptides of protein M of SARS-CoV Urbani / Binding of serum 6 to looped/cyclic peptides of protein M of SARS-CoV Urbani / Binding of serum 37 to looped/cyclic peptides of protein M of SARS-CoV Urbani / Binding of serum 6 to linear peptides of protein X3 of SARS-CoV Urbani / Binding of serum 37 to linear peptides of protein X3 of SARS-CoV Urbani / Binding of serum 37 to looped/cyclic peptides of protein X3 of SARS-CoV Urbani / Binding of serum 6 to linear peptides of protein X4 of SARS-CoV Urbani / Binding of serum 37 to linear peptides of protein X4 of SARS-CoV Urbani / Binding of serum 37 to looped/cyclic peptides of protein X4 of SARS-CoV Urbani / Binding of serum 6 to linear peptides of protein X5 of SARS-CoV Urbani / Binding of serum 37 to linear peptides of protein X5 of SARS-CoV Urbani / Binding of serum 37 to looped/cyclic peptides of protein X5 of SARS-CoV Urbani / Binding of serum 6 to linear peptides of protein N of SARS-CoV Urbani / Binding of serum 37 to linear peptides of protein N of SARS-CoV Urbani / Binding of serum 6 to linear peptide (PEPSCAN-ELISA) / Binding of serum 1a to looped/cyclic peptides of protein N of SARS-CoV Urbani / Binding of serum 1b to looped/cyclic peptides of protein N of SARS-CoV Urbani / Binding of serum 2 to looped/cyclic peptides of protein N of SARS-CoV Urbani / Binding of serum 6 to looped/cyclic peptides of protein N of SARS-CoV Urbani / Binding of serum 37 to looped/cyclic peptides of protein N of SARS-CoV Urbani / Binding of serum 62 to looped/cyclic peptides of protein N of SARS-CoV Urbani / Binding of serum London to looped/cyclic peptides of protein N of SARS-CoV Urbani / Binding of serum SARS-green to looped/cyclic peptides of protein N of SARS-CoV Urbani: unit not given here
[2] = tested on: control sera (pooled serum of ten healthy LUMC hospital workers; commercial negative donor pooled serum from the Dutch bloodbank); format: binding, human; set-up: Binding of Control serum LUMC to linear peptides / Binding of Control serum Blood-bank to linear peptides / Binding of Control serum LUMC to looped peptides / Binding of Control Serum Blood-Bank to Looped peptides / Binding of Control serum LUMC to linear peptides of the protein M of SARS-CoV Urbani / Binding of Control serum Blood-bank to linear peptides of the protein M of SARS-CoV Urbani / Binding of Control serum LUMC to looped peptides of the protein M of SARS-CoV Urbani / Binding of Control Serum Blood-Bank to Looped peptides of the protein M of SARS-CoV Urbani: unit not given here
[3] = tested on: rabbit serum obtained by immunizing a rabbit with the SARS-CoV strain Frankfurt 1; format: binding; set-up: Binding of a rabbit serum to linear peptides / Binding of a rabbit serum to looped peptides / Rabbit serum linear peptides / Rabbit serum looped peptides / Binding of a rabbit serum to linear peptides of protein N of SARS-CoV Urbani (Rabbit serum linear peptides) / Binding of a rabbit serum to looped/cyclic peptides of protein N of SARS-CoV Urbani (Rabbit serum looped peptides): unit not given here
[4] = tested on: recombinant human anti-SARS-CoV antibody 03-018; format: binding; set-up: Binding of antibody 03-018 to linear peptides of the N protein of SARS-CoV Urbani / Binding of antibody 03-018 to looped/cyclic peptides of the N protein of SARS-CoV Urbani: unit not given here
[5] = target: SARS-CoV preparation (Frankfurt 1 strain) (SARS-CoV strain Frankfurt 1)

Row | Molecule | Binding of serum 1a to linear peptides of protein N of SARS-CoV Urbani [1] | Binding of serum 1a to looped/cyclic peptides of protein N of SARS-CoV Urbani [1] | Binding of serum 1b to linear peptides of protein N of SARS-CoV Urbani [1] | Binding of serum 1b to looped/cyclic peptides of protein N of SARS-CoV Urbani [1] | Binding of serum 2 to linear peptides of protein N of SARS-CoV Urbani [1] | Binding of serum 2 to looped/cyclic peptides of protein N of SARS-CoV Urbani [1] | Binding of serum 6 to looped/cyclic peptides of protein N of SARS-CoV Urbani [1] | Binding of serum 37 to looped/cyclic peptides of protein N of SARS-CoV Urbani [1] | Binding of serum 62 to looped/cyclic peptides of protein N of SARS-CoV Urbani [1] | Binding of serum London to looped/cyclic peptides of protein N of SARS-CoV Urbani [1] | Binding of serum SARS-green to looped/cyclic peptides of protein N of SARS-CoV Urbani [1] | Binding of serum SARS-yellow to looped/cyclic peptides of protein N of SARS-CoV Urbani [1] | Binding of Control Serum Blood-Bank to Looped peptides [2] | Binding of Control serum Blood-bank to linear peptides [2] | Binding of Control serum LUMC to linear peptides [2] | Binding of Control serum LUMC to looped peptides [2] | Binding of a rabbit serum to linear peptides of protein N of SARS-CoV Urbani (Rabbit serum linear peptides) [3] | Binding of a rabbit serum to looped/cyclic peptides of protein N of SARS-CoV Urbani (Rabbit serum looped peptides) [3] | Binding of antibody 03-018 to linear peptides of the N protein of SARS-CoV Urbani [4] | Binding of antibody 03-018 to looped/cyclic peptides of the N protein of SARS-CoV Urbani [4] | also measured
1 | YGANKEGIVWVATEG | 0.3 | 0.4 | 0.1 | 0.3 | 0.2 | 0.5 | 0.3 | 0.8 | 0.7 | 0.4 | 0.4 | 0.7 | 0.7 | 0.6 | 0.6 | 0.7 | 0.1 | 0.5 | 0.1 | 0.2 | Binding of serum 6 to linear peptides of protein N of SARS-CoV Urbani [1]: 0.2; Binding of serum 37 to linear peptides of protein N of SARS-CoV Urbani [1]: 0.8; Binding of serum 62 to linear peptides of protein N of SARS-CoV Urbani [1]: 0.7; Binding of serum London to linear peptides of protein N of SARS-CoV Urbani [1]: 0.4; Binding of serum SARS-green to linear peptides of protein N of SARS-CoV Urbani [1]: 0.4; Binding of serum SARS-yellow to linear peptides of protein N of SARS-CoV Urbani [1]: 0.7
2 | SPRWYFYYLGTGPEA | 0.3 | 0.6 | 0.2 | 0.3 | 0.2 | 0.5 | 0.4 | 0.9 | 1.1 | 0.7 | 0.6 | 0.7 | 0.8 | 0.7 | 0.6 | 0.8 | 0.2 | 0.6 | 0.1 | 0.2 | Binding of serum 6 to linear peptides of protein N of SARS-CoV Urbani [1]: 0.2; Binding of serum 37 to linear peptides of protein N of SARS-CoV Urbani [1]: 0.9; Binding of serum 62 to linear peptides of protein N of SARS-CoV Urbani [1]: 0.9; Binding of serum London to linear peptides of protein N of SARS-CoV Urbani [1]: 0.5; Binding of serum SARS-green to linear peptides of protein N of SARS-CoV Urbani [1]: 0.6; Binding of serum SARS-yellow to linear peptides of protein N of SARS-CoV Urbani [1]: 0.6
3 | LLLLDRLNQLESKVS | – | 0.2 | – | 0.1 | – | 0.2 | 0.1 | 0.4 | 0.2 | 0.3 | 0.2 | 0.0 | 0.4 | 0.7 | 0.6 | 0.4 | 0.1 | 0.0 | 0.2 | 0.2 | Binding of serum 1a to linear peptide (PEPSCAN-ELISA) [1]: 0.2; Binding of serum 1b to linear peptide (PEPSCAN-ELISA) [1]: 0.1; Binding of serum 2 to linear peptide (PEPSCAN-ELISA) [1]: 0.2; Binding of serum 6 to linear peptide (PEPSCAN-ELISA) [1]: 0.1; Binding of serum 37 to linear peptide (PEPSCAN-ELISA) [1]: 0.7; Binding of serum 62 to linear peptide (PEPSCAN-ELISA) [1]: 0.4; Binding of serum London to linear peptide (PEPSCAN-ELISA) [1]: 0.7; Binding of serum SARS-green to linear peptide (PEPSCAN-ELISA) [1]: 0.4; Binding of serum SARS-yellow to linear peptide (PEPSCAN-ELISA) [1]: 0.4
4 | QLESKVSGKGQQQQG | – | 0.5 | – | 0.4 | – | 0.7 | 0.5 | 0.6 | 0.7 | 0.7 | 0.7 | 1.1 | 1.0 | 0.8 | 0.8 | 0.9 | 0.1 | 0.4 | 0.1 | 0.3 | Binding of serum 1a to linear peptide (PEPSCAN-ELISA) [1]: 0.3; Binding of serum 1b to linear peptide (PEPSCAN-ELISA) [1]: 0.1; Binding of serum 2 to linear peptide (PEPSCAN-ELISA) [1]: 0.3; Binding of serum 6 to linear peptide (PEPSCAN-ELISA) [1]: 0.2; Binding of serum 37 to linear peptide (PEPSCAN-ELISA) [1]: 0.7; Binding of serum 62 to linear peptide (PEPSCAN-ELISA) [1]: 0.8; Binding of serum London to linear peptide (PEPSCAN-ELISA) [1]: 0.6; Binding of serum SARS-green to linear peptide (PEPSCAN-ELISA) [1]: 0.5; Binding of serum SARS-yellow to linear peptide (PEPSCAN-ELISA) [1]: 0.8
5 | SC03-006 (scFv) scFv: SMAEVQLVESGGGLVQPGGSLRLSCAASGFTFSGYPMHWVRQAPGKGLEWVAVISYDGSNKYYADSVKGRFTISRDNSKNTLYLQMNSLRAEDTAVYYCAKDGSPRTPSFDYWGQGTLVTVLEGTGGSGGTGSGTGTSELDIQMTQSPHSLSASVGDRVTITCRASQGISNYLAWYQQKPGKVPKLLIYAASTLQSGVPSRFSGSGSGTDFTLTISSLQPEDVGVYYCQQRFRTPVTFGQGTKLEIKRAAA | – | – | – | – | – | – | – | – | – | – | – | – | – | – | – | – | – | – | – | – | OD492nm [5]: 1.06 OD492nm
6 | SC03-015 (scFv) scFv: AMAEVQLVESGGGVVRPGGSLRLSCAASGFTFDDYGMSWVRQAPGKGLEWVSGINWNGGSTGYADSVKGRFTISRDNAKNSLYLQMNSLRAEDTAVYYCARGLSLRPWGQGTLVTVSRGGGGSGGGGSGGGGSSELTQDPAVSVALGQTVRITCQGDSLRSYYASWYQQKPGQAPVLVIYGKNNRPSGIPDRFSGSSSGNTASLTITGAQAEDEADYYCNSRDSSGNHVVFGGGTKLTVLGAAA | – | – | – | – | – | – | – | – | – | – | – | – | – | – | – | – | – | – | – | – | OD492nm [5]: 0.796 OD492nm
